The source of these data is US10214492B2, “Heterocyclic inhibitors of MCT4” (Vettore, LLC, priority 2016, dated 2019).

SMILES strings stand for the structures. Like-named read-outs stand apart in the source and are kept apart here. Some results are limits rather than exact numbers.

Assay [1] concerns the target MCT4 (Homo sapiens (Human), UniProt O15427). The assay can be described thus: Assay 3: MCT4-mediated lactate transport in MDA-MB-231 breast cancer cells. In kind it is cell-based. In a few lines: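 Read-out is BCECF fluorescence tracking the intracellular pH shift from MCT4-mediated lactate/H+ co-transport. Before measurement, MDA-MB-231 cells take up BCECF-AM for 5 min at 37° C, then are washed into Tyrode's Solution, pH 7.4.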

The target of assay [2] is MCT1 (Homo sapiens (Human), UniProt P53985). The assay can be described thus: Assay 4: MCT1-mediated lactate transport in BT20 breast cancer cells. As to conditions: Table 27. In kind it is cell-based. The method, boiled down:
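Transport started with 10 mM L-lactate on BCECF-loaded BT20 cells in Tyrode's Solution, pH 7.4. Dye loading: BCECF-AM ester (30 mM DMSO stock), 5 min at 37° C, then one wash.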

Setting [3] is: MDA-MB-231 cells, lactate transport.

Sequence of MCT4 (O15427 whole entry, looked up): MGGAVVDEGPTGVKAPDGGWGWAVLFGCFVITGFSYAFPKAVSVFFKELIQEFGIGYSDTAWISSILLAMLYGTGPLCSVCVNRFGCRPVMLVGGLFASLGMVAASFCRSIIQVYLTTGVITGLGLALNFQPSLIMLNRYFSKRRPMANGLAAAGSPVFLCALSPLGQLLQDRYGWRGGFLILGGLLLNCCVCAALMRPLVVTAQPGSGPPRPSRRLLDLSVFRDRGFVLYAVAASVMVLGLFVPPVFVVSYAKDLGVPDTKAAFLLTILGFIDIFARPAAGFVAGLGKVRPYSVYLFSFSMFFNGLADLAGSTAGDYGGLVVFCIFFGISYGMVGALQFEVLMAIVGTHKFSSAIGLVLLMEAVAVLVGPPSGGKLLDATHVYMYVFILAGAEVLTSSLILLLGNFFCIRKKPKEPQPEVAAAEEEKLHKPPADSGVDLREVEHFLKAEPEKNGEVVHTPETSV
Sequence of MCT4 (P35613 whole entry partner, looked up): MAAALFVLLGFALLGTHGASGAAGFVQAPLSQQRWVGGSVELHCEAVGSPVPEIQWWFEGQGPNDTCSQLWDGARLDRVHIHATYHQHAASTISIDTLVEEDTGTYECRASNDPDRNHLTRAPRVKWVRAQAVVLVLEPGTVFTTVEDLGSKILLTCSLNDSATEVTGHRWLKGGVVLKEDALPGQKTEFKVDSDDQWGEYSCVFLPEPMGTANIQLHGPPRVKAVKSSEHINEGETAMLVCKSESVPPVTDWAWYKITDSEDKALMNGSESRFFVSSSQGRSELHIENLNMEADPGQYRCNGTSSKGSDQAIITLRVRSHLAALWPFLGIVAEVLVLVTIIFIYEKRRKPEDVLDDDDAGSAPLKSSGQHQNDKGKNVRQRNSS
Sequence of MCT1 (P53985 whole entry): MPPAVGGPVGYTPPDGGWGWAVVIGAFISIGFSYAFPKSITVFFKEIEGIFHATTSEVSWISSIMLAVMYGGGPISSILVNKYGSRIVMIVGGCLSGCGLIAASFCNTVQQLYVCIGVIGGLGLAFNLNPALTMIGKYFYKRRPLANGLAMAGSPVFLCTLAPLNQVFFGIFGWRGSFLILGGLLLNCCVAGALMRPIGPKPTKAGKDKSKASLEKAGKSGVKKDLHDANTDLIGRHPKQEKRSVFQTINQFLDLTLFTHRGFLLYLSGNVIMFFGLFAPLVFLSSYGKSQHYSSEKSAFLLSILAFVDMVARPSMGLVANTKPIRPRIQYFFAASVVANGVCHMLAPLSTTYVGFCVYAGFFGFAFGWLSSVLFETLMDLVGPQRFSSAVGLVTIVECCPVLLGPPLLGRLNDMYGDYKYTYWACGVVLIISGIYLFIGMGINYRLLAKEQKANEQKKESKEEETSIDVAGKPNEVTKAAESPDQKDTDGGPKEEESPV
Sequence of MCT1 (P35613 140-385 partner): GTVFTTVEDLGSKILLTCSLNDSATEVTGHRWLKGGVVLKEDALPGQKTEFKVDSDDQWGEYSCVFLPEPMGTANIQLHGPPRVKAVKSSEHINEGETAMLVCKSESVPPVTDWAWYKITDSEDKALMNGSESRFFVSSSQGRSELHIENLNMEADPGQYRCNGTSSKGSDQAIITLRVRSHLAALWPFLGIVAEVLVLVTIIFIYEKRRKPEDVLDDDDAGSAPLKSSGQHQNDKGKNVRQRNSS

On to `Cn1ncc2ccc(-c3cc(COC(C)(C)C(=O)O)nn3-c3ccccc3N3CCCC3)cc21` [Example 230, 2-Methyl-2-([5-(1-methyl-1H-indazol-6-yl)-1-[2-(pyrrolidin-1-yl)phenyl]-1H-pyrazol-3-yl]methoxy]propanoic acid], for which the values for the IC50 in assay [1] (setting [3]) and in assay [2] were 8.1 nM and 92000 nM, respectively.
The like results for `COc1cc(OC)cc(-c2cc(COC(C)(C)C(=O)O)nn2-c2ccccc2N2CCCC2)c1` [Example 231, 2-([5-(3,5-Dimethoxyphenyl)-1-[2-(pyrrolidin-1-yl)phenyl]-1H-pyrazol-3-yl]-methoxy)-2-methylpropanoic acid] were, in that order, 4.5 nM and 63000 nM.
For the compound `CC(C)(OCc1cc(-c2cccc(OC3CC3)c2)n(-c2ccccc2N2CC[C@H](O)C2)n1)C(=O)O` [Example 233, 2-([5-(3-Cyclopropoxyphenyl)-1-[2-[(3S)-3-hydroxypyrrolidin-1-yl]phenyl]-1H-pyrazol-3-yl]methoxy)-2-methylpropanoic acid], the IC50 is 700 nM in assay [1] (setting [3]) and > 100000 nM in assay [2].
Regarding `CC(C)(OCc1cc(-c2cccc(OC3CC3)c2)n(-c2ccccc2N2CCOCC2)n1)C(=O)O` [Example 234, 2-([5-(3-Cyclopropoxyphenyl)-1-[2-(morpholin-4-yl)phenyl]-1H-pyrazol-3-yl]-methoxy)-2-methylpropanoic acid], the IC50 is 960 nM in assay [1] (setting [3]) and 70000 nM in assay [2].
Take `CC(C)(OCc1cc(-c2cccc(OC3CC3)c2)n(-c2ccccc2N2CCCC2=O)n1)C(=O)O` [Example 235, 2-([5-(3-Cyclopropoxyphenyl)-1-(2-(2-oxopyrrolidin-1-yl)phenyl]-1H-pyrazol-3-yl]methoxy)-2-methylpropanoic acid]: the IC50 is > 30000 nM in assay [1] (setting [3]) and > 100000 nM in assay [2].
Consider `CC(C)(OCc1cc(-c2cccc(OC3CC3)c2)n(-c2ccccc2-n2cccn2)n1)C(=O)O` [Example 236, 2-([5-(3-Cyclopropoxyphenyl)-1-[2-(1H-pyrazol-1-yl)phenyl]-1H-pyrazol-3-yl]-methoxy)-2-methylpropanoic acid], for which the IC50 in assay [1] (setting [3]) was 170 nM; in assay [2], > 100000 nM.
The like results for `CC(C)(OCc1cc(-c2cccc(OC3CC3)c2)n(-c2ccccc2N2CC[C@@H](O)C2)n1)C(=O)O` [Example 237, 2-([5-(3-Cyclopropoxyphenyl)-1-[2-[(3R)-3-hydroxypyrrolidin-1-yl]phenyl]-1H-pyrazol-3-yl]methoxy)-2-methylpropanoic acid] were, in that order, 160 nM and > 100000 nM.
For the compound `CC(C)(OCc1cc(-c2cccc(OC3CCC3)c2)n(Cc2ccccc2N2CCCC2)n1)C(=O)O` [Example 238, 2-([5-(3-Cyclobutoxyphenyl)-1-[[2-(pyrrolidin-1-yl)phenyl]methyl]-1H-pyrazol-3-yl]methoxy)-2-methylpropanoic acid], the figures for the IC50 in assay [1] (setting [3]) and in assay [2] were 3.7 nM and 21000 nM, respectively.
As for `CC(C)(OCc1cc(-c2cccc(OC3CC3)c2)n(-c2ccccc2C#N)n1)C(=O)O` [Example 239, 2-([1-(2-Cyanophenyl)-5-(3-cyclopropoxy-phenyl)-1H-pyrazol-3-yl)methoxy)-2-methylpropanoic acid], the IC50 was 150 nM in assay [1] and > 100000 nM in assay [2].
As to `COc1cc(OC)cc(-c2cc(COC(C)(C)C(=O)O)nn2-c2ccccc2N(C)C)c1` [Example 245, 2-([5-(3,5-Dimethoxyphenyl)-1-[2-(dimethylamino)phenyl)-1H-pyrazol-3-yl]-methoxy)-2-methylpropanoic acid], the IC50 in assay [1] (setting [3]) turned out to be 7.6 nM; in assay [2], 77000 nM.
Take `CC(C)COc1cccc(-c2cc(COC(C)(C)C(=O)O)nn2Cc2ccccn2)c1` [Example 247, 2-Methyl-2-([5-[3-(2-methylpropoxy)-phenyl]-1-([pyridin-2-yl]methyl)-1H-pyrazol-3-yl]methoxy)propanoic acid]: the IC50 in assay [1] (setting [3]) was 23 nM; in assay [2], > 100000 nM.
For the compound `COc1cc(OC)cc(-c2cc(COC(C)(C)C(=O)O)nn2-c2cccc3cnn(C)c23)c1` [Example 249, 2-([5-(3,5-Dimethoxyphenyl)-1-(1-methyl-1H-indazol-7-yl)-1H-pyrazol-3-yl]methoxy)-2-methylpropanoic acid], the IC50 in assay [1] (setting [3]) is 39 nM; in assay [2], > 100000 nM.
Turning to `CCOc1cccc(F)c1Cn1nc(COC(C)(C)C(=O)O)cc1-c1cc(OC)cc(OC)c1` [Example 252, 2-([5-(3,5-Dimethoxyphenyl)-1-[(2-ethoxy-6-fluorophenyl)methyl]-1H-pyrazol-3-yl]methoxy)-2-methylpropanoic acid], the IC50 in assay [1] (setting [3]) was found to be 25 nM; in assay [2] it was 43000 nM.
As for `CC(C)(C)COc1cccc(-c2cc(COC(C)(C)C(=O)O)nn2-c2cccc3cccnc23)c1` [Example 253, 2-([5-[3-(2,2-Dimethylpropoxy)phenyl]-1-(quinolin-8-yl)-1H-pyrazol-3-yl]methoxy)-2-methylpropanoic acid], the IC50 came to 19 nM in assay [1] (setting [3]) and 55000 nM in assay [2].
Take `COc1cc(OC)cc(-c2cc(COC(C)(C)C(=O)O)nn2Cc2ccccn2)c1` [Example 254, 2-([5-(3,5-Dimethoxyphenyl)-1-([pyridin-2-yl]methyl)-1H-pyrazol-3-yl]methoxy)-2-methylpropanoic acid]: the IC50 is 285 nM in assay [1] (setting [3]) and > 100000 nM in assay [2].
The like results for `Cn1ncc2cccc(Cn3nc(COC(C)(C)C(=O)O)cc3-c3cccc(OCC(C)(C)C)c3)c21` [Example 256, 2-([5-[3-(2,2-Dimethylpropoxy)phenyl]-1-[(1-methyl-1H-indazol-7-yl)methyl]-1H-pyrazol-3-yl]methoxy)-2-methylpropanoic acid] were, in that order, 2.6 nM and 17000 nM.
As to `Cn1nnc2cccc(-n3nc(COC(C)(C)C(=O)O)cc3-c3cccc(OCC(C)(C)C)c3)c21` [Example 258, 2-([5-[3-(2,2-Dimethylpropoxy)phenyl]-1-(1-methyl-1H-1,2,3-benzotriazol-7-yl)-1H-pyrazol-3-yl)methoxy)-2-methylpropanoic acid], the IC50 was found to be 12 nM in assay [1] (setting [3]) and 27000 nM in assay [2].
Take `CCn1ncc2ccc(-c3cc(COC(C)(C)C(=O)O)nn3Cc3ccccn3)cc21` [Example 259, 2-([5-(1-Ethyl-1H-indazol-6-yl)-1-([pyridin-2-yl]methyl)-1H-pyrazol-3-yl]methoxy)-2-methylpropanoic acid]: the IC50 in assay [1] (setting [3]) is 850 nM; in assay [2] it was > 100000 nM.
For the compound `CCn1nnc2ccc(-c3cc(COC(C)(C)C(=O)O)nn3Cc3ccccc3Cl)cc21` [Example 261], the IC50 came out at 17 nM in assay [1] (setting [3]) and 43000 nM in assay [2].
Turning to `CC[C@@](C)(OCc1cc(-c2cccc(OC3CC3)c2)n(-c2ccccc2Cl)n1)C(=O)O` [Example 262, (2R)-2-([1-(2-Chlorophenyl)-5-(3-cyclopropoxyphenyl)-1H-pyrazol-3-yl]methoxy)-2-methylbutanoic acid], the figures for the IC50 in assay [1] (setting [3]) and in assay [2] were 9.1 nM and 7900 nM, respectively.
Turning to `CC[C@@](C)(OCc1cc(-c2cccc(OCC(C)C)c2)n(-c2cccc3cnn(C)c23)n1)C(=O)O` [Example 263, (2R)-2-Methyl-2-([1-(1-methyl-1H-indazol-7-yl)-5-[3-(2-methylpropoxy)phenyl]-1H-pyrazol-3-yl]methoxy]butanoic acid], the results for the IC50 in assay [1] (setting [3]) and in assay [2] were 2.2 nM and 16000 nM, respectively.
